Measurements published in patent US5639777A, “1,4,5-triphenyl pyrazolyl compounds for the treatment of inflammation and inflammation-related disorders” (G.D. Searle & Co., priority 1996, dated 1997).

Experiments:
[1] = system: carrageenan-induced foot edema in rats; test: Rat Carrageenan Foot Pad Edema Test; assay type: in vivo, Male Sprague-Dawley rats; details: @ 10 mg/kg body weight; oral; foot volume three hours after carrageenan injection
Experimental: The carrageenan foot edema test was performed with materials, reagents and procedures essentially as described by Winter, et al., (Proc. soc. Exm. Biol. Med., 111, 544 (1962)). Male Sprague-Dawley rats were selected in each group so that the average body weight was as close as possible. Rats were fasted with free access to water for over sixteen hours prior to the test. The rats were dosed orally (1 mL)with compounds suspended in vehicle containing 0.5% methylcellulose and 0.025% surfactant, or with vehicle alone. One hour later a subplantar injection of 0.1 mL of 1% solution of carrageenan/sterile 0.9% saline was administered and the volume of the injected foot was measured with a displacement plethysmometer connected to a pressure transducer with a digital indicator. Three hours after the injection of the carrageenan, the volume of the foot was again measured. The average foot swelling in a group of drug-treated animals was compared with that of a group of placebo-treated animals and the percentage inhibition of edema was determined (Otterness and Bliven, Laboratory Models for Testing NSAIDs, in Non-steroidal Anti-Inflammatory Drugs, (J. Lombardino, ed. 1985)).

[2] = compared with other common anti-inflammatory agents; cited from earlier work

Compound | % Inhibition (rat paw edema) [1] | ulcerogenic [2]
CS(=O)(=O)c1ccc(-c2c(-c3ccc(F)cc3)c(C(F)(F)F)nn2-c2ccccc2)cc1 [Example 1, 4-(4-Fluorophenyl)-5-[4-(methylsulfonyl)phenyl]-1-phenyl-3-(trifluoromethyl)pyrazole] | 20% | 
O=C(O)Cc1c(-c2ccccc2)c(-c2ccccc2)nn1-c1ccccc1 [Isofezolac, 1,3,4-triphenyl-1H-pyrazole-5-acetic acid] |  | as ulcerogenic as other common anti-inflammatory agents
